The values below come from US20230416168A1 (EUROCHEM ANTWERPEN, priority 2020, published 2023).

For one experiment, the system named is Nitrosospira multiformis. In words: Nitrification inhibition assay with Nitrosospira multiformis (nitrite level after 24 h). The settings on record: for pIC50 / activity at 100 µM: Nitrosospira multiformis; for pIC50: 8-point dose response, 2 to 100 μM, read-out: IC50; for activity at 100 µM: tested concentration 100 μM, 24 h, normalized to DMSO (100%) and 100 μM DMP (0%), read-out: Nitrification at tested concentration (0 = maximum activity). The experiment is classed as cell-based. As to the method:
(§1) The compounds of formula (I) and (II) and (III)/(IV) were tested for their nitrification inhibition effect in two screens, using assays with the nitrifying bacteria N. europaea and N. multiformis. In practice, ammonium and candidate nitrification inhibitors (at 100 μM) were added to a dense bacterial culture in multiwell culture plates and after 24 h of incubation, the nitrite level was measured. To normalize for differences between batches of cultures and multiwell culture plates, for each well a relative nitrification was calculated that was normalized towards both the negative and positive controls (see “Material and Methods” below for full details).
(§2) Nitrite (NO2−) was measured using the Griess reagent (Product number: G4410, Griess reagent (modified), Sigma-Aldrich). Equal volumes of the sample or a diluted sample and the Griess reagent were mixed a transparent flat bottom multi-well plate and incubated in the dark at room temperature for 10 minutes. Absorbance values at 540 nm were measured spectrophotometrically (EnVision, Perkin Elmer®) and used to calculate the [NO2−] by use of a standard curve.
Cultures were first 5 times overconcentrated in fresh 181-medium by centrifugation (4000 rpm, 15 min, 5° C.) in 50 mL centrifuge tubes (Cat. No. 430829, CentriStar™ Conical Centrifuge Tubes, Corning®). Per batch, all the cultures were pooled in one sterile Schott bottle and subsequently dispensed in 384-well plates (Cat. No. 781086, CELLSTAR® plate, Greiner BioOne; 50 μl/well) by use of a dispenser (Multidrop™ Combi Reagent Dispenser, Thermo Scientific™) that was first flushed with 181-medium. 0.5 μl of 99.99% DMSO (negative control—final concentration […] was added to the outer two columns on the left side of the plate and 0.5 μl of 10 mM DMP (3,4-dimethylpyrazole, positive control—final concentration 100 μM) was added to the outer two columns on the right side manually. Finally, 0.5 μl of candidate nitrification inhibitors (5 mM stock solutions in 99.99% DMSO—final concentration 50 μM) were added to the central wells using a pin tool on a Tecan robot (Freedom EVO®, Tecan). In between additions, the pins were washed in sequence with 99.5% DMSO, MilliQ water and 100% ethanol and air-dried. All plates were separately wrapped in Parafilm. Stacks of 4 plates were put on top of a 96-well plate filled with 100 μl MilliQ per well, covered with aluminum foil and shaken (±150 rpm) at 30° C. 24 h later, NO2− production was assessed. For this, the samples were first 100 times diluted by pipetting 3 μl of samples into 300 μl fresh growth medium in intermediate plates (Cat. No. 353077, Falcon® 96-well Clear Round Bottom Microplate, Corning®) to then mix 15 μl of the diluted samples with 15 μl Griess reagent in the wells of a transparent, flat bottom 384-well plate (Cat. No. X^7001, Low Profile Microplate, Molecular Devices) that was measured spectrophotometrically at 540 nm (EnVision, Perkin Elmer®).
(§3) To assess the efficacy of the compounds (in terms of nitrification inhibition) and to enable comparison between plates and batches of cultures, we calculated the relative nitrification. More in detail, all nitrite results were normalized towards both a negative control, containing no compound, and a positive control, containing the benchmark (100 μM DMP), using Equation 1. This normalization was done per multi-well plate and each plate contained 32 positive and 32 negative controls.
IC50 values, that is the concentration that inhibits 50% of the nitrification, were calculated after fitting a logistic curve to 8-point dose response data, using doses between 2 and 100 μM with 1.75 fold steps. If a concentration of 2 μM already inhibited nitrification, the IC50 value could not be calculated. In that case, IC50 values represent the dose that gives inhibition closest to 50%.
The compounds of formula (I) and (II) were tested for their nitrification inhibition effect in two screens, using assays with the nitrifying bacteria N. europaea and N. multiformis. […]

The test system of experiment [1] is NH3 or NH2OH oxidation in N. europaea cells. The experiment in a line: Nitrosomonas europaea ammonia vs. hydroxylamine oxidation assay. The experiment is classed as cell-based. As to conditions: for Nitrification from NH2OH (% compared to DMSO): 1 mM NH2OH as N-source; for Nitrification from NH2OH (% compared to DMSO) / Nitrification from NH3 (% compared to DMSO): compounds 50 μM, NO2- after 30 min; for Nitrification from NH3 (% compared to DMSO): NH4+ 1 mM as N-source. As to the method:
Two days old, late-log phase cultures with a NO2− concentration between 10 and 20 mM were washed 3 times in fresh growth medium (without N) and finally 4 times overconcentrated via centrifugation (4000 rpm, 15 min, 4° C.). Transparent, flat bottom 96-well plate (Cat. No. 353072, Falcon® 96 Well Clear Flat Bottom Microplate, Corning®) were filled with 150 μl culture per well using a dispenser (Multidrop™ Combi Reagent Dispenser, Thermo Scientific™). Compounds (final concentration 50 μM) were added in triplicate to the multi-well plate by use of a Tecan robot (Freedom EVO®, Tecan). Thiourea (positive control for inhibition of NH3 oxidation—final concentration 100 μM) and phenylhydrazine hydrochloride (positive control for inhibition of NH2OH oxidation—final concentration 1 mM) were added to the outer two columns. Each plate was made in duplicate to add either 500 μM (NH4)2SO4 (final [NH4+]=1 mM) or 1 mM NH2OH. All plates were separately wrapped in Parafilm. Stacks of 4 plates were put on top of a 96-well plate filled with 100 μl MilliQ per well, covered with aluminum foil and shaken (±150 rpm) at 28° C. To prevent read-out of secondary effects on NO2− production, NO2− was measured only 30 min later. For this, the samples were first 2 times diluted by pipetting 15 μl in 15 μl fresh growth medium in 96-well intermediate plates (Cat. Ref. PCR-96-FS-C, 96-well PCR Microplate, Axygen®) to then mix 15 μl of the diluted samples with 15 μl Griess reagent in the wells of a transparent, flat bottom 384-well plate (Cat. No. X^7001, Low Profile Microplate, Molecular Devices) that was measured spectrophotometrically at 540 nm (EnVision, Perkin Elmer®).
To get insights on the targeted metabolic pathway and to discriminate between compounds that specifically affect NH3 oxidation or that affect another pathway, three representative novel nitrification inhibitors (Examples 1, 5 and 6) were tested in the “ammonia vs hydroxylamine oxidation assay” in which NO2− production from NH3 was compared with NO2− production from NH2OH.

In the next experiment the test system is Nitrosomonas europaea. The experiment in a line: Nitrification inhibition assay with Nitrosomonas europaea (nitrite level after 24 h). The experiment is classed as cell-based. As to conditions: for pIC50 / activity at 100 µM: Nitrosomonas europaea; for pIC50: 8-point dose response, 2 to 100 μM, read-out: IC50; for activity at 100 µM: tested concentration 100 μM, 24 h, normalized to DMSO (100%) and 100 μM DMP (0%), read-out: Nitrification (%) at tested concentration (0 = maximum activity). Here is the method:
as §1, §2
To prepare a high-throughput nitrification inhibition assay using N. europaea, late-log phase cultures were subcultivated two days before the assay. Just before the assay, the cultures were 5 times overconcentrated with fresh growth medium after centrifugation (4000 rpm, 15 min, 5° C.) in 50 mL centrifuge tubes (Cat. No. 430829, CentriStar™ Conical Centrifuge Tubes, Corning®). Per batch, all the cultures were pooled in one sterile Schott bottle and subsequently dispensed into 384-well plates (Cat. No. 781086, CELL-STAR® plate, Greiner Bio-One; 50 μl/well) by use of a dispenser (Multidrop™ Combi Reagent Dispenser, Thermo Scientific™) that was first flushed with growth medium. Specifically for the high-throughput screen for new nitrification inhibitors, 0.5 μl of 99.99% DMSO (negative control—final concentration 1%) was added to the outer two columns on the left side of the plate and 0.5 μl of 10 mM DMP (3,4-dimethylpyrazole, positive control—final concentration 100 μM) was added to the outer two columns on the right side manually. Finally, 0.5 μl of candidate nitrification inhibitors (5 mM stock solutions in 99.99% DMSO—final concentration 50 μM) were added to the central wells using a pin tool on a Tecan robot (Freedom EVO®, Tecan). In between additions, the pins were washed in sequence with 99.5% DMSO, MilliQ water and 100% ethanol and air-dried. All plates were separately wrapped in Parafilm. Stacks of 4 plates were put on top of a 96-well plate filled with 100 μl MilliQ per well, covered with aluminum foil and shaken at 150 rpm at 28° C. 24 h later, NO2− production was assessed. For this, the samples were first 200 times diluted by pipetting 1.5 μl of samples into 300 μl of fresh growth medium in intermediate plates (Cat. No. 353077, Falcon® 96-well Clear Round Bottom Microplate, Corning®), to then mix 15 μl of the diluted samples with 15 μl Griess reagent in the wells of a transparent, flat bottom 384-well plate (Cat. No. X^7001, Low Profile Microplate, Molecular Devices) that was measured spectrophotometrically at 540 nm (EnVision, Perkin Elmer®).
as §3
IC50 values, that is the concentration that inhibits 50% of the nitrification, were calculated after fitting a logistic curve to 8-point dose response data, using doses between 2 and 100 μM with 1.75 fold steps. […]

Another experiment relates to Merelbeke soil. In words: In soil nitrification inhibition assay, Merelbeke soil. As to conditions: for inhibition of ammonium consumption in soil, in words: 50 μM, one week of treatment; for inhibition at 50 µM: soil, 168 h, 7 days, read-out: % Nitrification inhibition in soil (7 days of incubation, Merelbeke soil). Here is the method:
Top layer (0 to 10 cm) soil samples were collected from different fields in Belgium (Merelbeke and Moorslede). Vegetation on the field trial was removed and samples were taken from different plots. All soil samples were mixed and sieved (mesh size 2.8 mm) to filter large debris and homogenize soil. The soil was stored at 5° C. in plastic containers covered with Saran foil to prevent changes in microbial community composition and to maintain the original soil water content. Soil water content was determined by drying 20 g soil for 48 h in a 60° C. oven and measuring weight before and after drying. Based on the soil water content (±20%), compound solutions were prepared so that addition of 200 μl compound and 200 μl NH4Cl solution would result in a final compound concentration of 50 μM and a final NH4^+ concentration of 10 mM. Per treatment, 5 small pots were filled with 20 g soil. Next, the soil was treated first with the respective compound solution and then with the NH4Cl solution. Per tray, positive (50 μM DMP) and negative controls (DMSO) were included. Pots were incubated at 21° C. (6 a.m. to 10 p.m. light) for 7 days. Demineralized water was added to the soil every 2 to 3 days to a soil weight of 20 g. In the end, each sample of 20 g soil was dissolved in 100 ml 1M KCl and shaken for 1 hour, followed by filtration through Whatmann® paper. The filtrate was used to measure pH, NH4^+ and NO3− concentrations. The nitrification inhibitors were applied in a nitrification inhibition assay using agricultural soil. In practice, ammonium with or without the new nitrification inhibitors was added to soil from a field in Merelbeke (Belgium). The ammonium level was measured at the start of the experiment and at the end of the experiment, after one week of incubation. A nitrification inhibition percentage was calculated by comparing the reduction in ammonium level with the nitrification inhibitor to the reduction in ammonium without the nitrification inhibitor. Ammonium was added to soil with a high nitrification activity and treated with the nitrification inhibitors (final concentration of 50 μM). […] This validates that the new nitrification inhibitors are effectively inhibiting ammonia oxidation by soil communities.

The structures appear in SMILES notation. pIC50: −log10 of the molar value. Entries after “also recorded” stand apart in the source; their conditions may differ.

What is called pIC50 is the negative decadic logarithm of the IC50, by convention in mol/L. On to `CN(Cc1c(F)cccc1Cl)CN1CCOC1=S` [Example 6, 3-[[(2-chloro-6-fluorophenyl)methyl-methylamino]methyl]-1,3-oxazolidine-2-thione], for which, in the experiment with Nitrosospira multiformis, the “nitrification inhibition, in words” value is “strong nitrification inhibition”; the pIC50 is over 5.46; the activity at 100 µM is 0%. Besides, in experiment [1], the “Nitrification from NH2OH (% compared to DMSO)” value worked out at 80% and the “Nitrification from NH3 (% compared to DMSO)” value turned out to be 18%. Besides, in the experiment on Nitrosomonas europaea, the “nitrification inhibition, in words” value was “strong nitrification inhibition”; the negative-log IC50 (pIC50) was 4.85; the activity at 100 µM is 0%.
One may read the inhibition as how much of the control response was suppressed. With `CCC1CCCCN1C(=O)CSC1=NCCS1` (stereo not drawn) [Example 9], in the experiment on Nitrosospira multiformis, the negative logarithm of the IC50 (pIC50) is over 5.22 and the activity at 100 µM was 0%. In addition, in the experiment on Merelbeke soil, the “inhibition of ammonium consumption in soil, in words” value is listed as “significant inhibition” and the inhibition at 50 µM was 10%. For the same compound, in the experiment on Nitrosomonas europaea, the pIC50 was under 4.00 and the activity at 100 µM turned out to be 68%.
Turning to `O=C(CSC1=NCCS1)N1CCCC1` [Example 10], in the experiment on Nitrosospira multiformis, the pIC50 was over 5.00 and the activity at 100 µM amounted to 6%. Further, in the experiment on Merelbeke soil, the “inhibition of ammonium consumption in soil, in words” value was “significant inhibition” and the inhibition at 50 µM was 7%. Besides, in the experiment on Nitrosomonas europaea, the pIC50 is under 4.00 and the activity at 100 µM was found to be 81%.
`Cc1c[nH]nc1C` [Example C1, 3,4-dimethylpyrazole, reference compound]: in the experiment with Nitrosospira multiformis, the pIC50 was 4.85 and the activity at 100 µM turned out to be 0%. Besides, in experiment [1], the “Nitrification from NH2OH (% compared to DMSO)” value worked out at 56% and the “Nitrification from NH3 (% compared to DMSO)” value came to 27%. In experiment [1] (30 minutes assay, listed as DMP), the “effect on hydroxylamine (NH2OH) oxidation, in words” value was “reduced NH2OH oxidation; also recorded: limited effect”. Besides, in the experiment on Nitrosomonas europaea, the pIC50 was 5.22 and the activity at 100 µM was 0%.
